What is called IC90 is the concentration at which the effect reaches the 90% level. For orientation: CC50 means the concentration at which the toxic effect on the cells reaches its halfway point. The low end stands for harm at low concentration, the high end for better tolerance by the cells.

For data set [1], the system named is T. cruzi Dm28c-Luc intracellular amastigotes. In words: Anti-T. cruzi in vitro assay, intracellular amastigotes in Vero cells (luminescence). The following applies: for IC50: Vero. It counts as cell-based, Trypanosoma cruzi. As to the method: (§1) The genetically modified Trypanosoma cruzi, clone Dm28c (TcI), expressing luciferase (Dm28c-Luc), was kindly provided by Dr. Cristina Henriques from Oswaldo Cruz Institute—Fiocruz. The parasites were maintained using Vero cell cultures in RPMI 1640 medium enriched with 10% FBS. At 4 days post-infection (dpi), the trypomastigotes released into the culture supernatant were harvested, subjected to centrifugation at 800× g for 20 min at 4 °C, and quantified with a Neubauer chamber. The isolated trypomastigotes were subsequently used for phenotypic screening, drug efficacy assessments employing a 3D cardiac model, washout experiments to evaluate reversibility, drug combination studies, and enzymatic assays.
To evaluate the effect of pyrazole-imidazoline derivatives against intracellular amastigotes, Vero cells (1.5 × 10^4 cells/well) were cultured in a white 96-well plate with a clear bottom and subsequently infected with T. cruzi Dm28c-Luc at a 10:1 parasite-to-host cell ratio for 24 h. […] Parasite viability was measured by luminescence following the addition of luciferin (300 µg/mL). Background measurements (non-infected cultures incubated with luciferin, as well as luciferin-only controls) were performed to ensure the signal specifically originates from viable parasites. The IC50 and IC90 values, denoting the concentrations that achieve 50% and 90% reductions in viable parasites, respectively, were calculated using GraphPad Prism 8.2.1 software. Additionally, the selectivity index (SI) was calculated as the cytotoxic concentration (CC50) ratio in mammalian cells to the IC50 against T. cruzi, providing insight into the therapeutic window. Potency against intracellular amastigotes was evaluated using the formula 6—Log10 (IC50).

Data set [2] relates to T. cruzi cysteine protease. In words: Cysteine protease activity in trypomastigote protein extract (Z-Phe-Arg-AMC). It is filed as biochemical, Trypanosoma cruzi. The following applies: 90 min, 37 °C, 33.3, 100 and 300 µM tested. The method, then: Total proteins from T. cruzi Dm28c-Luc were extracted using a lysis buffer [100 mM Tris-HCl pH 8.0, 150 mM NaCl, 10% glycerol, 0.5% Triton X-100]. The protein concentration was quantified using the Bradford assay, with bovine serum albumin (BSA) used to establish the standard curve. For the assessment of cysteine protease activity, 5 μg of the protein extract was incubated in an acetate buffer [10 mM sodium acetate, pH 5.0], supplemented with 1 mM dithiothreitol (DTT) in a final volume of 100 μL. The reaction used a fluorogenic peptide substrate, N-benzoyloxycarbonyl-L-phenylalanyl-L-arginine 7-amino-4-methylcoumarin (Z-FR-AMC), at a concentration of 60 μM. Incubation was conducted at 37 °C for 90 min, with relative fluorescence changes measured using a SpectraMax M2e spectrophotometer (Molecular Devices, Sunnyvale, CA, USA). Inhibition assays were performed using three concentrations (33.3, 100, and 300 µM) of the promising candidate and trans-epoxysuccinyl-L-leucylamido(4-guanidino)butane (E-64), each analyzed separately. A control was included using a low DMSO concentration (≤1%). Enzymatic activity was expressed in µmol/min/mg of protein, with residual activity presented as a percentage.

Data set [3] is described as follows: Cytotoxicity assay, Vero cells (CellTiter-Glo). It counts as cell-based. As to conditions: African green monkey, mean ± SD. The method, then:
Vero cells, obtained from the Rio de Janeiro Cell Bank (BCRT code 0245) and maintained through weekly subculturing with a dissociation solution containing 0.25% trypsin-EDTA, initiated once the monolayer reached an 80–100% confluence. Following harvesting, the cells were washed and resuspended in RPMI 1640 medium enriched with 10% fetal bovine serum (FBS). Cultures were maintained at 37 °C in a 5% CO2-humidified incubator. These cultures were used for drug screening assays and for producing culture-derived trypomastigotes of T. cruzi.
Cytotoxicity assays were performed using Vero cells, which were seeded at a density of 1.5 × 10^4 cells per well in white 96-well plates with clear bottoms. Following a 24 h adhesion period, the cultures were incubated at 37 °C in a 5% CO2 atmosphere. […] After 72 h of incubation, cell viability was assessed by adding CellTiter-Glo reagent (Promega Corporation, Madison, WI, USA), which induces cell lysis and reacts with the released ATP to produce luminescence. The resulting luminescence was measured using a Glomax Multi-Detection plate reader (Promega Corporation, Madison, WI, USA). The half-maximal inhibitory concentration (CC50) for cell viability was then calculated using GraphPad Prism software version 8.2.1.
(Cellular ATP, detected with luciferase, serves as a proxy for viable cell number.)

In data set [4] the test system is T. cruzi Dm28c-Luc trypomastigotes. In words: Anti-T. cruzi in vitro assay, trypomastigotes (luminescence). It is filed as cell-based. The following applies: Trypanosoma cruzi, 24 h, mean ± SD. The method, then: as §1
Drug susceptibility assays were performed on T. cruzi Dm28c-Luc, a genetically engineered parasite expressing luciferase. The drug screening used both trypomastigotes and intracellular amastigotes. Trypomastigotes (1 × 10^6 parasites/well) were added to white 96-well plates with clear bottoms. […] The luminescence was measured using a Glomax Multi-Detection plate reader (Promega Corporation, Madison, WI, USA).

Data set [5] has as its system intracellular amastigotes of T. cruzi. In words: Drug combination with Bz, fixed-ratio isobologram, intracellular amastigotes. It is filed as cell-based. As to conditions: Trypanosoma cruzi; proportion 1k:Bz 5:0, 72 h; read-out: IC50 (Mean ± DP) in combination assay. As to the method:
The isobologram approach assessed the interaction between Bz and the promising candidate in intracellular amastigotes of T. cruzi. Vero cell cultures infected with T. cruzi (Dm28c-Luc) were treated for 72 h with various concentrations of combinations of Bz and the promising candidate, specifically at ratios of 5:0; 4:1; 3:2; 2:3; 1:4 and 0:5. The maximum concentration of each compound was established based on their IC50 values, ensuring both reached the fourth dilution in the serial dilution setup (1:3), culminating in a total of seven dilutions. After 72 h of treatment, parasite viability was measured by luminescence in a Glomax Multi-Detection plate reader (Promega Corporation, Madison, WI, USA) after incubation with luciferin. The IC50 values of each treatment combination were calculated individually, and the fractional inhibitory concentration index (FICI) was derived using the formula FICI = IC50 of the combination/IC50 of the compound alone. The overall FICI (ΣFICI) was calculated by summing the FICIs for both compounds in each combination group, while the average ΣFICI (xΣFICI) represented the overall mean across all combination groups. The xΣFICI values were then employed to classify the interaction as synergistic (xΣFICI ≤ 0.5), additive (0.5 < xΣFICI < 4), or antagonistic (xΣFICI > 4). […]

Structures are written as SMILES. Like-named read-outs stand apart in the source and are kept apart here. Where only a bound is given, the exact number is not on record here.

For `FC(F)(F)c1ccc(-n2cc(C3=NCCN3)cn2)cc1` [1k, 1-(4-trifluoromethylphenyl)-4-(4,5-dihydro-1H-imidazol-2-yl)-1H-pyrazole], the “SI (selectivity index = CC50/IC50)” value in data set [1] (CC50 Vero cells / IC50 intracellular amastigotes) is 73.9. For the same compound, the IC50 is 3.3 ± 0.2 µM in data set [1] (Trypanosoma cruzi, 72 h, Dm28c-Luc in Vero cells, mean ± SD, read-out: Intracellular Amastigotes IC50); 3.98 µM in data set [1] (Trypanosoma cruzi, intracellular amastigotes, 6 − Log10(IC50), read-out: pIC50 (potency) (converted)); 72.2 ± 10.3 µM in data set [4]; 3.75 ± 0.35 µM in data set [5]. The IC90 in data set [1] (Trypanosoma cruzi, 72 h, Dm28c-Luc in Vero cells, mean ± SD) is 28.1 ± 0.4 µM; in data set [4], more than 100 µM. The “enhancement in anti-T. cruzi activity relative to the hit compound” value in data set [1] (hit compound = 5-amino-pyrazole-imidazoline) came to 5 fold. Further, the “inhibition of cysteine protease activity” value in data set [2] turned out to be 3.76%. The same compound returned a CC50 at 72 h in data set [3] of 244 ± 21.1 µM.

Source of the values: PMC12348844, “Anti-Trypanosoma cruzi Potential of New Pyrazole-Imidazoline Derivatives” (Molecules, 2025).
